From patent US7371734B2, “Oligonucleotide compositions and their use for the modulation of immune responses” (Bioniche Life Sciences Inc., priority 2002, dated 2008) come the findings set out here.

Marks after values point to notes of the source that are not given here.

Common to all, as to assay type: cell-based
The test system of series [1] is Human dendritic cells. In words: Induction of IL-1beta production by DC (ELISA). The conditions noted are these: 100 μg, 48 hours. The procedure: (§1) Human dendritic cells were obtained from Clonetics (San Diego, Calif., USA) and were cultured in the medium recommended by Clonetics. DC were obtained from three different individuals (see Table 1). Major histocompatability typing was performed on each of these individuals and several of the HLA (human leukocyte antigens) types are shown.
DC were seeded in 1.0 ml at 1.0×10^5 cells/ml in 6-well flat-bottomed tissue culture plates for 48 hours with 100 μg of 6 base N1A, N1B, N2A, N2B, N3A, N3B, N4A, N4B, N5A, N5B, N6A, N6B, N7A or N7B polynucleotides. Production of IL-1beta was determined in 100 μl of culture supernatant using a commercial ELISA (BioSource, Camarillo, Calif., USA) after 48 hours of incubation. Results are expressed as the “fold” (x) increase in IL-1beta production by treated DC compared to control cells.
For orientation: ELISA stands for enzyme-linked immunosorbent assay.

Series [2] relates to Human dendritic cells. Briefly: Induction of IFN-gamma production by DC (ELISA). The settings on record: 100 μg, 48 hours. The procedure:
as §1
DC were seeded in 1.0 ml at 1.0×10^5 cells/ml in 6-well flat-bottomed tissue culture plates for 48 hours with 100 μg of6 base N1A, N1B, N2A, N2B, N3A, N3B, N4A, N4B, N5A, N5B, N6A, N6B, N7A or N7B polynucleotides. Production of IFN-gamma was determined in 100 μl of culture supernatant using a commercial ELISA (BioSource) after 48 hours of incubation. Results are expressed as the “fold” (x) increase in IFN-gamma production by treated DC compared to control cells.

Series [3] has as its system Human dendritic cells. Briefly: Increase in cell size and granularity of DC (flow cytometry). The conditions noted are these: 100 μg polynucleotide, 48 hours. As to the method:
as §1
DC were seeded in 1.0 ml at 1.0×10^5 cells/ml in 6-well flat-bottomed tissue culture plates for 48 hours with 100 μg of 6 base N1A, N1B, N2A, N2B, N3A, N3B, N4A, N4B, N5A, N5B, N6A, N6B, N7A or N7B polynucleotides. Cell size (FCS: forward side scatter) and granularity (S SC: side light scatter) were determined by flow cytometry using a FACSCalibur and analyzed using the CELLQuest Pro software (both from Becton-Dickinson, San Diego, Calif., USA). Percentage of DC showing a FCS>500 units and a SSC>400 units have been determined after treatment with 3-OH, 5-OH polynucleotides for DC isolated from three different individuals.
(In general: Flow cytometry measures light scatter and fluorescence of single cells or particles in a stream.)

Series [4] deals with Human dendritic cells. Briefly: CD40 levels at the DC cell surface (flow cytometry). The settings on record: 100 μg, 48 hours. The procedure: as §1
DC from individuals B and C were seeded in 1.0 ml at 1.0×10^5 cells/ml in 6-well flat-bottomed tissue culture plates for 48 hours with 100 μg of 6 base N1A, N1B, N2A, N2B, N3A, N3B, N4A, N4B, N5A, N5B, N6A, N6B, N7A or N7B polynucleotides. The level of CD40 at the cell surface was determined after 48 hours of incubation by flow cytometry (FACSCalibur system) using a FITC-conjugated monoclonal antibody directed to CD40 and analyzed by CELLQuest Pro (all from Becton Dickinson). Results are expressed as the percentage of CD40^hi DC following treatment. The term “CD40^hi” refers to a population of cells identified by flow cytometry as having higher than baseline expression of CD40.

Series [5] relates to Human dendritic cells. In words: Induction of IL-12 production by DC (ELISA). The settings on record: 100 μg, 48 hours. As to the method:
as §1
DC were seeded in 1.0 ml at 1.0×10^5 cells/ml in 6-well flat-bottomed tissue culture plates for 48 hours with 100 μg of 6 base N1A, N1B, N2A, N2B, N3A, N3B, N4A, N4B, N5A, N5B, N6A, N6B, N7A or N7B polynucleotides. Production of IL-12 was determined in 100 μl of culture supernatant using a commercial ELISA (BioSource) after 48 hours of incubation. Results are expressed as the “fold” (x) increase in IL-12 production by treated DC compared to control cells.

Series [6] has as its system Human dendritic cells. Briefly: MHC-II levels at the DC cell surface (flow cytometry). The conditions noted are these: DC from individual B; 100 μg, 48 hours. The procedure:
as §1
DC from individual B were seeded in 1.0 ml at 1.0×10^5 cells/ml in 6-well flat-bottomed tissue culture plates for 48 hours with 100 μg of 6 base N1A, N1B, N2A, N2B, N3A, N3B, N5A, N5B, N6A, N6B, N7A or N7B polynucleotides. The level of MHC II at the cell surface was determined after 48 hours of incubation by flow cytometry using a FITC-conjugated monoclonal antibody directed to MHC II (Serotec) and analyzed by CELLQuest Pro. Results are expressed as the percentage of MHC II^hi DC following treatment.

In series [7] the test system is Human dendritic cells. Briefly: CD80 levels at the DC cell surface (flow cytometry). The conditions noted are these: 100 μg, 48 hours. As to the method: as §1
DC from individuals B and C were seeded in 1.0 ml at 1.0×10^5 cells/ml in 6-well flat-bottomed tissue culture plates for 48 hours with 100 μg of 6 base N1A, N1B, N2A, N2B, N3A, N3B, N4A, N4B, N5A, N5B, N6A, N6B, N7A or N7B polynucleotides. The level of CD80 at the cell surface was determined after 48 hours of incubation by flow cytometry using a FITC-conjugated monoclonal antibody directed to CD80 (Serotec, Oxford, U.K.) and analyzed by CELLQuest. Results are expressed as the percentage of CD80^hi DC following treatment.

Series [8] concerns Human dendritic cells. Briefly: CD86 levels at the DC cell surface (flow cytometry). The settings on record: 100 μg, 48 hours. As to the method: as §1
DC from individuals B and C were seeded in 1.0 ml at 1.0×10^5 cells/ml in 6-well flat-bottomed tissue culture plates for 48 hours with 100 μg of 6 base N1A, N1B, N2A, N2B, N3A, N3B, N4A, N4B, N5A, N5B, N6A, N6B, N7A or N7B polynucleotides. The level of CD86 at the cell surface was determined after 48 hours of incubation by flow cytometry using a PE-conjugated monoclonal antibody directed to CD86 (Serotec) and analyzed by CELLQuest Pro. Results are expressed as the percentage of CD86^hi DC following treatment.

On to 5′ GTGTGT3′ [N1B], for which the “IL-1beta production by DC (fold increase compared to untreated DC)” value with Human dendritic cells [1] (DC isolated from individual A), with Human dendritic cells [1] (DC isolated from individual B) and in the series on Human dendritic cells [1] (DC isolated from individual C) was 1.0 fold in each case. The “IFN-gamma production by DC (fold increase compared to untreated DC)” value was 0.9 fold in the series on Human dendritic cells [2] (DC isolated from individual A), 1.0 fold in the series on Human dendritic cells [2] (DC isolated from individual B) and 1.0 fold in the series with Human dendritic cells [2] (DC isolated from individual C). In addition, the “Percentage of DC showing a FCS > 500 units and a SSC > 400 units” value is given as 5% in the series on Human dendritic cells [3] (DC isolated from individual A), 17% in the series on Human dendritic cells [3] (DC isolated from individual B) and 25% in the series on Human dendritic cells [3] (DC isolated from individual C). The “The percentage of CD40^hi DC following treatment” value in the series with Human dendritic cells [4] (DC from individual B) is given as 31** %; in the series with Human dendritic cells [4] (DC from individual C), 18%. Besides, the “IL-12 production by DC (fold increase compared to untreated DC)” value in the series on Human dendritic cells [5] (DC isolated from individual A) stood at 1.5 fold; in the series with Human dendritic cells [5] (DC isolated from individual B), 1.3 fold; in the series with Human dendritic cells [5] (DC isolated from individual C) it was 1.1 fold. In addition, the “The percentage of MHC-II^hi DC following treatment” value in the series with Human dendritic cells [6] is listed as 7%. The “The percentage of CD80^hi DC following treatment” value in the series with Human dendritic cells [7] (DC from individual B) stood at 11%; in the series with Human dendritic cells [7] (DC from individual C), 13%. Moreover, the “The percentage of CD86^hi DC following treatment” value in the series on Human dendritic cells [8] (DC from individual B) is reported as 19%; in the series on Human dendritic cells [8] (DC from individual C) it was 27%.

As to “5′GGCCGG3′ [N4A] (DNA, all phosphodiester, methylation of C not given here)”, the “IL-1beta production by DC (fold increase compared to untreated DC)” value in the series on Human dendritic cells [1] (DC isolated from individual A) came out at 0.9 fold; in the series on Human dendritic cells [1] (DC isolated from individual C), 1.0 fold. Moreover, the “IFN-gamma production by DC (fold increase compared to untreated DC)” value in the series with Human dendritic cells [2] (DC isolated from individual A) and in the series on Human dendritic cells [2] (DC isolated from individual C) was 1.0 fold in each case. The “Percentage of DC showing a FCS > 500 units and a SSC > 400 units” value in the series on Human dendritic cells [3] (DC isolated from individual A) is given as 4%; in the series with Human dendritic cells [3] (DC isolated from individual C), 19%. Also, the “The percentage of CD40^hi DC following treatment” value in the series with Human dendritic cells [4] (DC from individual C) was found to be 16%. Further, the “IL-12 production by DC (fold increase compared to untreated DC)” value is listed as 1.2 fold in the series on Human dendritic cells [5] (DC isolated from individual A) and 1.0 fold in the series on Human dendritic cells [5] (DC isolated from individual C). Moreover, the “The percentage of CD80^hi DC following treatment” value with Human dendritic cells [7] (DC from individual B) is listed as 11%; in the series on Human dendritic cells [7] (DC from individual C) it was 21** %. Further, the “The percentage of CD86^hi DC following treatment” value with Human dendritic cells [8] (DC from individual C) was determined as 23%.

As to “5′GGCCGG3′ [N4B] (DNA, all phosphorothioate, methylation of C not given here)”, the “IL-1beta production by DC (fold increase compared to untreated DC)” value in the series with Human dendritic cells [1] (DC isolated from individual A) and with Human dendritic cells [1] (DC isolated from individual C) was 1.0 fold in each case. In addition, the “IFN-gamma production by DC (fold increase compared to untreated DC)” value with Human dendritic cells [2] (DC isolated from individual A) and in the series on Human dendritic cells [2] (DC isolated from individual C) was 1.0 fold throughout. Moreover, the “Percentage of DC showing a FCS > 500 units and a SSC > 400 units” value in the series on Human dendritic cells [3] (DC isolated from individual A) is recorded as 4%; in the series with Human dendritic cells [3] (DC isolated from individual C), 32%. In the series with Human dendritic cells [4] (DC from individual C), the “The percentage of CD40^hi DC following treatment” value is 16%. Moreover, the entries for the “IL-12 production by DC (fold increase compared to untreated DC)” value in the series on Human dendritic cells [5] (DC isolated from individual A) and with Human dendritic cells [5] (DC isolated from individual C) were 1.3 fold and 2.6 fold, respectively. Moreover, the “The percentage of CD80^hi DC following treatment” value in the series on Human dendritic cells [7] (DC from individual B) came out at 9%; in the series on Human dendritic cells [7] (DC from individual C) it was 13%. For the same substance, the “The percentage of CD86^hi DC following treatment” value in the series with Human dendritic cells [8] (DC from individual C) worked out at 32%.

As to “5′GGGCGG3′ [N7B] (DNA, all phosphorothioate, methylation of C not given here)”, the “IL-1beta production by DC (fold increase compared to untreated DC)” value with Human dendritic cells [1] (DC isolated from individual A) was 1.1 fold; with Human dendritic cells [1] (DC isolated from individual C) it was 0.9 fold. The “IFN-gamma production by DC (fold increase compared to untreated DC)” value in the series with Human dendritic cells [2] (DC isolated from individual A) and in the series on Human dendritic cells [2] (DC isolated from individual C) was 1.1 fold in each case. Further, the “Percentage of DC showing a FCS > 500 units and a SSC > 400 units” value with Human dendritic cells [3] (DC isolated from individual A) is 16%; with Human dendritic cells [3] (DC isolated from individual C), 31%. Further, in the series with Human dendritic cells [4] (DC from individual C), the “The percentage of CD40^hi DC following treatment” value is 18%. Also, the entries for the “IL-12 production by DC (fold increase compared to untreated DC)” value in the series with Human dendritic cells [5] (DC isolated from individual A) and in the series on Human dendritic cells [5] (DC isolated from individual C) were 1.8 fold and 1.0 fold, respectively. For the same substance, the “The percentage of MHC-II^hi DC following treatment” value with Human dendritic cells [6] is reported as 31** %. Moreover, the “The percentage of CD80^hi DC following treatment” value in the series on Human dendritic cells [7] (DC from individual B) and in the series on Human dendritic cells [7] (DC from individual C) was 5% each time. Further, in the series with Human dendritic cells [8] (DC from individual C), the “The percentage of CD86^hi DC following treatment” value was determined as 34%.
